The values below come from patent publication US8263060B2, “Fast degrading polymers” (Rutgers, The State University of New Jersey, priority 2005, dated 2012).

SMILES strings stand for the structures. ≈ marks a conversion by molar mass, not a printed value.

What is called solubility is the concentration that dissolves in the medium under given conditions. Low readings indicate a poorly soluble substance, high ones a readily soluble substance.

A short description of this series: Solubility in PBS degradation media. Type of series: physicochemical. The note with it: aqueous buffer.

With `COc1cc(C(=O)O)cc(OC)c1O` [syringic acid], the solubility came out at 56 mg/mL (≈ 283 mM).
